Test results taken from patent publication US20200054682A1, “METHODS AND COMPOSITIONS FOR TREATING MITOCHONDRIAL DISEASE OR DISORDERS AND HETEROPLASMY” (Imel Biotherapeutics, Inc., priority 2018, published 2020).
“Also recorded” adds a separate entry of the source.

Key:
NHDF recipient cells = experiment: engulfment of DsRed-labeled exogenous mitochondria by FACS with rapamycin or palmitic acid; type: cell-based, human; conditions: ρ(−) NHDF cells; rapamycin 50 ng/ml, palmitic acid 50 μM; FACS day 8
Procedure: Rapamycin was added into the culture media at the concentration of 50 ng/ml for 24 hours, and cells were exposed to glucose and essential amino acids free media without serum for 1 hour to simulate starvation. […] The ratio of phosphorylated AMPK to AMPK and phosphorylated p70 S6 kinase to p70 S6 kinase, which is a downstream target of mTORC1, were examined by using capillary electrophoresis, Wes™ (Protein Simple).
Next, we examined the effects of rapamycin and palmitic acid upon mitochondria engulfment by treating the cells with rapamycin or palmitic acid simultaneously during the mitochondria co-cultivation. A scheme of the protocol is illustrated in FIG. 6I. Briefly, the NHDF recipient cells were transfected with the MTS-XbaI expression vector and cultured with or without rapamycin, or with or without palmitic acid (PA). Puromycin selection for ρ(−) cells expressing the MTS-XbaI was performed after 48 hours. On day 6, transfer of isolated mitochondria marked with DsRed from EPC100 cells was performed. On Day8, FACS analyses were performed to detect the donor mitochondria by measuring DsRed expression in the NHDF recipient cells.

mtDNA = mtDNA copy number by qPCR, MTS-XbaIR versus EtBr, in EPC100 cells; type: cell-based, human; conditions: qPCR relative to Actb, EtBr 50 ng/mL, untreated cells 6189.6867
Procedure: The efficiency and efficacy of the MTS-XbaIR expression vector relative to the conventional method that employs ethidium bromide (EtBr) was evaluated according to the scheme illustrated in FIG. 2A. The placental venous endothelium-derived cell line EPC100 with DsRed labeled mitochondria were cultured in pyruvate-free DMEM (Wako cat #044-29765) with 10% fetal bovine serum (FBS) and 1% penicillin/streptomycin (P/S), and at day 0 the cells were either untreated (“normal”), transfected with the MTS-XbaIR expression vector (“MTS-XbaIR”), or treated with 50 ng/mL of EtBr. At day 1, the cells were cultured in DMEM with 10% FBS, and 1% P/S supplemented with 100 μg/mL pyruvate and 50 μg/mL uridine. […] Cells with this partial reduction of mtDNA were termed as ρ(−) cells.

| SMILES | engulfment of DsRed-labeled isolated exogenous mitochondria (NHDF recipient cells) | mtDNA copy number (mtDNA) |
| --- | --- | --- |
| CCCCCCCCCCCCCCCC(=O)O [palmitic acid] | decreased; also recorded: clearly suppressed |  |
| CC[n+]1c(-c2ccccc2)c2cc(N)ccc2c2ccc(N)cc21 [EtBr, ethidium bromide] |  | 5169.1258 |
